{
  "source": "patent US20110212899A1",
  "about": "“Corneal Neuritogenesis Promoter Containing Pacap and Its Derivative” (priority 2004, published 2011)",
  "test_system": "cultured rabbit trigeminal nerve cells",
  "test": "Promoting effect on neuritogenesis in cultured rabbit trigeminal nerve cells (2) (Test Example 4)",
  "format": "cell-based",
  "details": "cultured for 48 hours, control group 20.7%",
  "description": "Japanese white rabbits (2 to 3 days old) purchased from Kitayama Labes Co., Lid. were used.\nRabbit trigeminal nerve cells were isolated according to a method reported by Chan et al. (Kwan Y. Chan and Richard H. Haschke, Exp. Eye Res. 41: 687-699, 1985). The rabbit was subjected to cardiac perfusion with physiological saline under ether anesthesia. A trigeminal ganglion was excised from the rabbit, and then dispersed in a nerve dispersion liquid (Sumitomo Bakelite Co., Ltd.) to prepare trigeminal nerve cells. The trigeminal nerve cells were cultured in Neurobasal medium (Invitrogen Corp) supplemented with B27 Supplement (Invitrogen Corp; final concentration: 2% v/v) and L-glutamine (Invitrogen Corp; final concentration: 1 mM) under 5% CO2 and 95% air at a humidity of 100% and a temperature of 37° C. […]\nFor evaluating neuritogenesis in the cultured rabbit trigeminal nerve cells, the length of the longest neurite and the major axis of the cell body in the stained cell images scanned into the computer were measured using image analysis software (Image-Pro Plus ver. 4.0, Planetron, Inc.) The cells in 3 wells for each group were measured. […] The proportion (%) of the neurite forming cells in the total cell number was calculated (Otori, Y., Wei, J. Y., Barnstable, C. J., Invest. Opthalmol. Vis. Sic., (1998)39, 972-981). […]",
  "note": "Where no end group is shown, it is not given here.",
  "data": [
    {"substance": "His-Ser-Asp-Ala-Ile-Phe-Thr-Asp-Ser-Tyr-Ser-Arg-Tyr-Arg-Arg-Gln-Leu-Ala-Val-Arg-Arg-Tyr-Leu-Ala-Ala-Val-Leu-Gly-Arg-Arg-NH2 (HSDAIFTDSYSRYRRQLAVRRYLAAVLGRR-NH2) [Peptide 24]", "values": [
      {"measurement": "proportion (%) of the neurite forming cells in the total cell number", "setting": "0.1 μM", "value": 42.5, "unit": "%"},
      {"measurement": "proportion (%) of the neurite forming cells in the total cell number", "setting": "1 μM", "value": 51.4, "unit": "%"}
    ]}
  ]
}
